Test results taken from patent publication US12319676B2, “Substituted amide compounds useful as farnesoid X receptor modulators” (BRISTOL-MYERS SQUIBB COMPANY, priority 2019, dated 2025).

Molecular target: T1, human FXR (Homo sapiens, UniProt Q96RI1)
T1 construct: expressed in transfected cells; host or cells: HEK293 cells stably carrying a 5xGal4 response element-luciferase reporter, transiently transfected with pcDNA3.1-Gal4-FXR
T1 sequence (Q96RI1 262-486 limits assumed): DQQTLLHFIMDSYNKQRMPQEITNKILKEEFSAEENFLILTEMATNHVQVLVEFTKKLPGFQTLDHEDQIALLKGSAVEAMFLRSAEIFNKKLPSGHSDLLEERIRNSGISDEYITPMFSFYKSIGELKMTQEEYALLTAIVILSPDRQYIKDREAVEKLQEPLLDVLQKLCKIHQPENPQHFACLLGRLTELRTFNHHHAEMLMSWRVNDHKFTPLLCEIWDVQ
Test: transient human FXR/Gal4-luciferase reporter assay
Type: cell-based
Settings: Gal4-hFXR fusion construct, luciferase reporter in HEK293 cells; overnight incubation; response as percentage of 8 μM GW-4064 control
In short: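 HEK293 cells stably carrying a 5×Gal4-response-element firefly luciferase reporter were transiently transfected with a Gal4 DBD-human FXR LBD fusion, then treated overnight with compounds at 37 °C. Steady-Glo luminescence, minus DMSO background, was expressed as percent of the response to 8 μM GW-4064.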

| SMILES | EC50 |
| --- | --- |
| CC(F)(F)c1nc(C23CCC(CN(C(=O)C45CC(F)(C4)C5)c4cc(F)cc(C#N)c4)(CC2)CC3)no1 [Example 135, N-(3-cyano-5-fluorophenyl)-N-((4-(5-(1,1-difluoroethyl)-1,2,4-oxadiazol-3-yl)bicyclo[2.2.2]octan-1-yl)methyl)-3-fluorobicyclo[1.1.1]pentane-1-carboxamide] | 18 nM |
| CC(F)(F)c1nc(C23CCC(CN(c4cc(F)cc(C#N)c4)C(=O)[C@H]4C[C@](O)(C(F)(F)F)C4)(CC2)CC3)no1 [Example 136, (1S,3S)-N-(3-cyano-5-fluorophenyl)-N-((4-(5-(1,1-difluoroethyl)-1,2,4-oxadiazol-3-yl)bicyclo[2.2.2]octan-1-yl)methyl)-3-hydroxy-3-(trifluoromethyl)cyclobutane-1] | 256 nM |
| CC(F)(F)c1nc(C23CCC(CN(C(=O)C4CC(F)(F)C4)c4cc(F)cc(C#N)c4)(CC2)CC3)no1 [Example 137, N-(3-cyano-5-fluorophenyl)-N-((4-(5-(1,1-difluoroethyl)-1,2,4-oxadiazol-3-yl)bicyclo[2.2.2]octan-1-yl)methyl)-3,3-difluorocyclobutane-1-carboxamide] | 103 nM |
| CC(F)(F)c1nc(C23CCC(CN(C(=O)C4CCS(=O)(=O)CC4)c4cc(F)cc(C#N)c4)(CC2)CC3)no1 [Example 138, N-(3-cyano-5-fluorophenyl)-N-((4-(5-(1,1-difluoroethyl)-1,2,4-oxadiazol-3-yl)bicyclo[2.2.2]octan-1-yl)methyl)tetrahydro-2H-thiopyran-4-carboxamide 1,1-dioxide] | 4000 nM |
| NC(=O)c1nc(C23CCC(CN(c4cccc(Br)c4)C(=O)[C@H]4C[C@](O)(C(F)(F)F)C4)(CC2)CC3)no1 [Example 139, 3-(4-(((1S,3S)—N-(3-bromophenyl)-3-hydroxy-3-(trifluoromethyl)cyclobutane-1-carboxamido)methyl)bicyclo[2.2.2]octan-1-yl)-1,2,4-oxadiazole-5-carboxamide] | 1450 nM |
| NC(=O)c1nc(C23CCC(CN(C(=O)C45CC(F)(C4)C5)c4cccc(Br)c4)(CC2)CC3)no1 [Example 140, 3-(4-((N-(3-bromophenyl)-3-fluorobicyclo[1.1.1]pentane-1-carboxamido)methyl)bicyclo[2.2.2]octan-1-yl)-1,2,4-oxadiazole-5-carboxamide] | 721 nM |
